{
  "source": "patent US11331284B2",
  "about": "(UNM Rainforest Innovations, priority 2017, dated 2022)",
  "key": {"[1]": {"test_system": "TFEB nuclear translocation", "test": "ambroxol induction of TFEB nuclear translocation", "assay_type": "cell-based"}, "[2]": {"test_system": "bone marrow derived macrophages from wild type (autophagy, LC3 puncta)", "test": "ambroxol dose response assay, LC3 puncta quantified by Cellomics, wild type cells", "assay_type": "cell-based"}, "[3]": {"test_system": "bone marrow derived macrophages from ATG5 knockouts (autophagy, LC3 puncta)", "test": "ambroxol dose response assay, LC3 puncta quantified by Cellomics, ATG5 knockout cells", "assay_type": "cell-based", "excerpt": "The inventors next studied the same assay, described above, but in ATG5 knockout cells."}, "[4]": {"settings": "in humans; reference 1; cited from earlier work"}},
  "data": [
    {"smiles": "Nc1c(Br)cc(Br)cc1CN[C@H]1CC[C@H](O)CC1", "note": "[ambroxol, trans-4-[(2-amino-3,5-dibromobenzyl)amino]cyclohexanol]", "values": [
      {"measurement": "concentration at which significant increases were observed", "setting": "[1]; FIGS. 5 and 6", "result": 25, "unit": "µM"},
      {"measurement": "EC50", "setting": "[1]; read-out: concentration giving 50% of maximal autophagy induced by ambroxol (sigmoidal fit), both data sets, FIGS. 5 and 6", "result": "~50", "unit": "µM"},
      {"measurement": "concentration as low as which had a positive effect on autophagy", "setting": "[2]; LC3 puncta, pp242 induction = 100%, t test v. control p=0.025, FIG. 3", "result": 6.25, "unit": "µM"},
      {"measurement": "dose response of autophagy induction", "setting": "[2]; ambroxol 0 to 200 uM, FIG. 3", "result": "higher ambroxol concentrations result in higher induction of autophagy"},
      {"measurement": "dose response of autophagy induction", "setting": "[3]; FIG. 4", "result": "clear dose response"},
      {"measurement": "concentration as low as which gave appreciable increases in autophagy", "setting": "[3]; LC3 puncta, t test v. control p=0.0008, FIG. 4", "result": 6.25, "unit": "µM"},
      {"measurement": "plasma half-life", "setting": "[4]", "result": 3.72, "unit": "h"}
    ]}
  ]
}
